This note sets out measurements from patent US7960376B2, “Benzo-fused heterocycles” (priority 2007, dated 2011).

Assay type in all cases: cell-based
The target in assay [1] is human CB1 receptor (hCB1) (Homo sapiens, UniProt P21554). As to the kind of experiment: cAMP assay (LANCE TR-FRET) in CHO-K1 cells expressing hCB1. The conditions noted are these: intracellular cAMP, NKH-477 prestimulated, + agonist, − inverse agonist. For orientation: Changes in cAMP serve as a functional read-out for many G protein-coupled receptors.
In the next assay the target is T1, rat CB2 receptor (rCB2) (Rattus norvegicus, UniProt Q9QZN9).
T1 sequence (Q9QZN9 1-360): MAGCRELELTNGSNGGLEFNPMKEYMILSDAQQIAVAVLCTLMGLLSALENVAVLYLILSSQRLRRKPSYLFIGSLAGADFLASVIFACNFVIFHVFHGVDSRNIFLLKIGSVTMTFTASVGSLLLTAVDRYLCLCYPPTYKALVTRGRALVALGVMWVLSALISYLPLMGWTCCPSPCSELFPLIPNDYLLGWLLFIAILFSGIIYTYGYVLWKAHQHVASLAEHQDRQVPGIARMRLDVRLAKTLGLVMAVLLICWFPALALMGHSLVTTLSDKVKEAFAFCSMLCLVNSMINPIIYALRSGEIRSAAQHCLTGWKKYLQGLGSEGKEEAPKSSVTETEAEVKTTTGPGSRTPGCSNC
As to the kind of experiment: cell-based. To be noted: intracellular cAMP, CHO-K1 cells, NKH-477 prestimulated; + agonist, − inverse agonist.

Assay [2] deals with human CB2 receptor (hCB2) (Homo sapiens, UniProt P34972). Kind of assay: cell-based. The conditions noted are these: intracellular cAMP, CHO-K1 cells, NKH-477 prestimulated; + agonist, − inverse agonist.
Chain of human CB2 receptor (hCB2) (P34972 whole entry): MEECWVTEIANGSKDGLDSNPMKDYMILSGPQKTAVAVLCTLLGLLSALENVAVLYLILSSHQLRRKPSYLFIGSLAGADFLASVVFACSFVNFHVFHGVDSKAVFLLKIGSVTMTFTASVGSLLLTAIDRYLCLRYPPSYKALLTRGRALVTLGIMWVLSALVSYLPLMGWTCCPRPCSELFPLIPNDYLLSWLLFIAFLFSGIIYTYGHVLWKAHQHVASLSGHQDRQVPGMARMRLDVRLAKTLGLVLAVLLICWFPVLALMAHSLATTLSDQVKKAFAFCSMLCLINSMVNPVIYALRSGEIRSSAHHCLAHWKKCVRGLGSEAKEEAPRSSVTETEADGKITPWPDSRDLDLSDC

Chain of human CB1 receptor (hCB1) (P21554 whole entry): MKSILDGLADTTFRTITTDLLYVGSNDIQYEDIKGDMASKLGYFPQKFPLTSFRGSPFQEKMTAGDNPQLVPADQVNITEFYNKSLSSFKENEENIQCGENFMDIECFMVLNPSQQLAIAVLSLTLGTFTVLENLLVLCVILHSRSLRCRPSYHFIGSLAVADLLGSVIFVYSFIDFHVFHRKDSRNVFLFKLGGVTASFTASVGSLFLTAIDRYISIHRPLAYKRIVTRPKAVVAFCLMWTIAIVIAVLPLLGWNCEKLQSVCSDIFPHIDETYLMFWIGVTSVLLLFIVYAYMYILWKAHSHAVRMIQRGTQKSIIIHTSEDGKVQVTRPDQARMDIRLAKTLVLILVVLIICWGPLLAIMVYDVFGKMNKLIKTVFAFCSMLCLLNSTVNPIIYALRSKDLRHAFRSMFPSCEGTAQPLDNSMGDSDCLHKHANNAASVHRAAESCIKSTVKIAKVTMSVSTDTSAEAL

Regarding `CC(C)CNC(=O)c1ccc2c(c1)N(C(=O)c1ccc(F)cc1)CCS2` [Example 3, 4-(4-fluorobenzoyl)-N-isobutyl-3,4-dihydro-2H-benzo[b][1,4] thiazine-6-carboxamide], in assay [1], the “hCB1 EC50 range” value is reported as “−E”. For the same compound, the “rCB2 EC50 range” value on rat CB2 receptor (rCB2) is recorded as “−E”.

As for `CC(C)(C)NC(=O)c1ccc2c(c1)N(C(=O)c1ccc(F)cc1)CCS2` [Example 6, N-tert-butyl-4-(4-fluorobenzoyl)-3,4-dihydro-2H-benzo[b][1,4] thiazine-6-carboxamide], the “hCB1 EC50 range” value in assay [1] is listed as “−E”. The “rCB2 EC50 range” value at rat CB2 receptor (rCB2) is “−E”.

For the compound `COc1ccc(C(=O)N2CCSc3ccc(C(=O)NC(C)(C)C)cc32)cc1` [Example 7, N-tert-butyl-4-(4-methoxybenzoyl)-3,4-dihydro-2H-benzo[b] [1,4]thiazine-6-carboxamide], the “hCB1 EC50 range” value in assay [1] is listed as “−E”. The “rCB2 EC50 range” value on rat CB2 receptor (rCB2) is “−E”.

For the compound `Cc1ccc(C(=O)N2CCSc3ccc(C(=O)NC(C)(C)C)cc32)cc1` [Example 8, N-tert-butyl-4-(4-methylbenzoyl)-3,4-dihydro-2H-benzo[b][1,4]thiazine-6-carboxamide], in assay [1], the “hCB1 EC50 range” value is given as “−E”.

Take `O=C(NC1CCCC1)c1ccc2c(c1)N(C(=O)c1ccc(F)cc1)CCS2` [Example 12, N-cyclopentyl-4-(4-fluorobenzoyl)-3,4-dihydro-2H-benzo[b] [1,4]thiazine-6-carboxamide]: in assay [1], the “hCB1 EC50 range” value is “−E”. The “rCB2 EC50 range” value on rat CB2 receptor (rCB2) is “−D”.

In the case of `CCC(=O)N1CCSc2ccc(C(=O)NC34CC5CC(CC(C5)C3)C4)cc21` [Example 39, N-(1-adamantyl)-4-propionyl-3,4-dihydro-2H-benzo[b][1,4]thiazine-6-carboxamide], in assay [1], the “hCB1 EC50 range” value was “−E”. Further, the “rCB2 EC50 range” value on rat CB2 receptor (rCB2) is reported as “−E”.

With `O=C(NC12CC3CC(CC(C3)C1)C2)c1ccc2c(c1)N(S(=O)(=O)c1ccc(F)cc1)CCS2` [Example 51, N-(1-adamantyl)-4-(4-fluorophenylsulfonyl)-3,4-dihydro-2H-benzo[b][1,4]thiazine-6-carboxamide], the “hCB1 EC50 range” value in assay [1] was “+D”. On rat CB2 receptor (rCB2), the “rCB2 EC50 range” value is on record as “−C”.

Regarding `O=C(c1ccc2c(c1)N(S(=O)(=O)c1ccccc1)CCS2)N1CCCC1` [Example 66, (4-(phenylsulfonyl)-3,4-dihydro-2H-benzo[b][1,4]thiazin-6-yl)(pyrrolidin-1-yl)methanone], the “hCB2 EC50 range” value in assay [2] was “+D”. Besides, at rat CB2 receptor (rCB2), the “rCB2 EC50 range” value was “+D”.

Regarding `O=C(c1ccc2c(c1)N(S(=O)(=O)c1ccccc1)CCS2)N1CCCCC1` [Example 67, (4-(phenylsulfonyl)-3,4-dihydro-2H-benzo[b][1,4]thiazin-6-yl)(piperidin-1-yl)methanone], the “hCB2 EC50 range” value in assay [2] is on record as “+D”. For the same compound, on rat CB2 receptor (rCB2), the “rCB2 EC50 range” value is listed as “+C”.

Turning to `O=C(c1ccc2c(c1)N(S(=O)(=O)c1ccccc1)CCS2)N1CCOCC1` [Example 68], in assay [2], the “hCB2 EC50 range” value is reported as “+D”. Further, the “rCB2 EC50 range” value on rat CB2 receptor (rCB2) is on record as “+D”.

Turning to `CN(C)C(=O)c1ccc2c(c1)N(S(=O)(=O)c1ccc(F)cc1)CCS2` [Example 69, 4-(4-fluorophenylsulfonyl)-N,N-dimethyl-3,4-dihydro-2H-benzo[b][1,4]thiazine-6-carboxamide], the “hCB2 EC50 range” value in assay [2] is reported as “+E”. Moreover, the “rCB2 EC50 range” value at rat CB2 receptor (rCB2) was “+D”.

As to `CCN(CC)C(=O)c1ccc2c(c1)N(S(=O)(=O)c1ccc(F)cc1)CCS2` [Example 70, N,N-diethyl-4-(4-fluorophenylsulfonyl)-3,4-dihydro-2H-benzo[b][1,4]thiazine-6-carboxamide], the “hCB2 EC50 range” value in assay [2] is listed as “+D”. Further, the “rCB2 EC50 range” value at rat CB2 receptor (rCB2) was “+C”.

With `CN(C)C(=O)c1ccc2c(c1)N(S(=O)(=O)c1ccc(C(F)(F)F)cc1)CCS2` [Example 72, N,N-dimethyl-4-(4-(trifluoromethyl)phenylsulfonyl)-3,4-dihydro-2H-benzo[b][1,4]thiazine-6-carboxamide], in assay [2], the “hCB2 EC50 range” value is given as “+C”. Also, the “rCB2 EC50 range” value at rat CB2 receptor (rCB2) was “+C”.

On to `O=C(c1ccc2c(c1)N(S(=O)(=O)c1ccc(C(F)(F)F)cc1)CCS2)N1CCCC1` [Example 74, pyrrolidin-1-yl(4-(4-(trifluoromethyl)phenylsulfonyl)-3,4-dihydro-2H-benzo[b][1,4]thiazin-6-yl)methanone], for which, in assay [2], the “hCB2 EC50 range” value is on record as “+E”. At rat CB2 receptor (rCB2), the “rCB2 EC50 range” value is given as “−C”.

On to `O=C(c1ccc2c(c1)N(S(=O)(=O)c1ccc(C(F)(F)F)cc1)CCS2)N1CCOCC1` [Example 76, morpholino(4-(4-(trifluoromethyl)phenylsulfonyl)-3,4-dihydro-2H-benzo[b][1,4]thiazin-6-yl)methanone], for which the “hCB2 EC50 range” value in assay [2] is “+D”. For the same compound, the “rCB2 EC50 range” value on rat CB2 receptor (rCB2) is on record as “+C”.

Take `O=C(NNC(=O)c1ccc2c(c1)N(S(=O)(=O)c1ccc(F)cc1)CCS2)c1ccccc1` [Example 78, N′-benzoyl-4-(4-fluorophenylsulfonyl)-3,4-dihydro-2H-benzo[b][1,4]thiazine-6-carbohydrazide]: in assay [2], the “hCB2 EC50 range” value is given as “+E”. For the same compound, the “rCB2 EC50 range” value on rat CB2 receptor (rCB2) is listed as “+D”.

For the compound `O=C(NNC(=O)c1ccc2c(c1)N(S(=O)(=O)c1ccc(C(F)(F)F)cc1)CCS2)c1ccccc1` [Example 79, N′-benzoyl-4-(4-(trifluoromethyl)phenylsulfonyl)-3,4-dihydro-2H-benzo[b][1,4]thiazine-6-carbohydrazide], in assay [2], the “hCB2 EC50 range” value is “+D”. Moreover, at rat CB2 receptor (rCB2), the “rCB2 EC50 range” value was “+D”.

With `O=S(=O)(c1ccc(C(F)(F)F)cc1)N1CCSc2ccc(-c3nc(-c4ccccn4)no3)cc21` [Example 81, 3-(pyridin-2-yl)-5-(4-(4-(trifluoromethyl)phenylsulfonyl)-3,4-dihydro-2H-benzo[b][1,4]thiazin-6-yl)-1,2,4-oxadiazole], the “hCB2 EC50 range” value in assay [2] is “+B”. Further, the “rCB2 EC50 range” value on rat CB2 receptor (rCB2) is given as “+A”.

On to `CCc1noc(-c2ccc3c(c2)N(S(=O)(=O)c2ccccc2)CCS3)n1` [Example 86], for which the “hCB2 EC50 range” value in assay [2] is “+B”. Besides, the “rCB2 EC50 range” value on rat CB2 receptor (rCB2) was “+A”.

In the case of `CC(C)CNC(=O)c1ccc2c(c1)N(S(=O)(=O)c1ccccc1)CCC(C)(C)S2` [Example 92, N-isobutyl-2,2-dimethyl-5-(phenyl-sulfonyl)-2,3,4,5-tetrahydrobenzo[b][1,4] thiazepine-7-carboxamide], the “hCB1 EC50 range” value in assay [1] is “−E”. Further, the “rCB2 EC50 range” value at rat CB2 receptor (rCB2) is recorded as “−E”.

In the case of `CC1(C)CCN(S(=O)(=O)c2ccccc2)c2cc(C(=O)N3CCOCC3)ccc2S1` [Example 94, (2,2-dimethyl-5-(phenylsulfonyl)-2,3,4,5-tetrahydro-benzo[b][1,4]thiazepin-7-yl)(morpholino)-methanone], the “hCB2 EC50 range” value in assay [2] is given as “+E”. The “rCB2 EC50 range” value on rat CB2 receptor (rCB2) is listed as “+D”.

As to `Cc1nnc(-c2ccc3c(c2)N(S(=O)(=O)c2cn(C)cn2)CCS3)o1` [Example 106, 2-methyl-5-(4-(1-methyl-1H-imidazol-4-ylsulfonyl)-3,4-dihydro-2H-benzo[b][1,4]thiazin-6-yl)-1,3,4-oxadiazole], in assay [2], the “hCB2 EC50 range” value is reported as “+E”. The “rCB2 EC50 range” value on rat CB2 receptor (rCB2) is recorded as “+D”.

Take `O=S(=O)(c1ccc(C(F)(F)F)cc1)N1CCSc2ccc(-c3ncc(-c4ccccc4)[nH]3)cc21` [Example 107, 6-(5-phenyl-1H-imidazol-2-yl)-4-(4-(trifluoromethyl)phenylsulfonyl)-3,4-dihydro-2H-benzo[b][1,4]thiazine]: in assay [2], the “hCB2 EC50 range” value was “+C”. In addition, on rat CB2 receptor (rCB2), the “rCB2 EC50 range” value was “+B”.
